From patent publication US12433876B2, “Septin inhibitors for treatment of cancers” (UNIVERSITY OF ROCHESTER, priority 2019, dated 2025)

Columns and labels:
[1] = system: endometrial (ECC-1 and KLE) and ovarian (HCH-1, OVCAR-3, and SKOV-3) cancer cell lines; assay: MTS cell viability, gynecologic cancer cell line panel; type: cell-based; settings: for cytotoxic / anti-proliferative activity (FIG. 2A): fixed concentration 100 μM, 24 hours; for proliferation in multiple endometrial and ovarian cancer cells: at considerably lower doses than FCF
Procedure: Cell lines, Culture, and Reagents. Cells were maintained in either DMEM (SKOV-3, KLE, OVCAR-3, OVCAR8-C5 and IGROV-1) or RPMI-1640 (ECC-1 and HCH-1), supplemented with 10% fetal calf serum (or 20% for OVCAR-3), penicillin (100 units/mL), and streptomycin (100 μg/mL) at 37° C. with 5% CO2 in a humidified incubator. Antibodies were purchased from Abcam (septin-2; ab179436) and Cell Signaling Technology; ERK (9102), p-ERK (4370), -actin (3700), u-Tubulin (2144), EGFR (4267) and HER2 (4290). FCF was purchased from Abcam. All other chemicals were from Sigma Aldrich. Synthesis of Derivaties. […] The reaction was monitored using thin-layer chromatography plates with DCM-MeOH or pure ethyl acetate as eluent. Spots were monitored in a UV chamber. The reaction mixture, upon completion of the reaction, was poured into wet ice mixture and triturated, then the separated solid was filtered by vacuum. The product was washed with hexane, followed by diethyl ether, and was dried under vacuum. The compounds were characterized by spectrophotometric techniques. Quantitative Real-Time PCR. The indicated cell lines were transfected with siRNA targeting septin-2 or non-targeting control siRNA (Santa Cruz Biotechnology: sc-37007 or sc-40936) using Lipofectamine 3000 (Invitrogen). Tri reagent and Direct-zol kit (Zymo Research) were used to lyse and isolate total RNA. Reverse transcription was performed using iScript cDNA synthesis kit (BioRad), both following the manufacturer's recommendations. Quantitative real-time PCR was conducted using QuantStudio 12 K Flex Real-Time PCR System (ABI) and the Taqman Gene Expression Assay (ABI) consisting of the FAM-labeled probes as follows: SEPT2 (Hs01565417_ml); WFDC2 (Hs00899484_ml); TBP (Hs00427620_ml) or B2M (Hs00187842_ml), which was used as reference for normalization. Cell Viability, Proliferation and Apoptosis Assay. Cell viability, proliferation, and cellular apoptosis were measured using the MTS (Promega), BrdU cell proliferation (Cell Signaling Technology), and Caspase-Glo 3/7 apoptosis detection (Promega) assays, following the respective manufacturer's recommendations with suitable modification. Enzyme-Linked Immunosorbent Assay (ELISA) and Immunoblotting. Cells were maintained overnight in the culture media described above. […] Following the treatment, cell lysates and supernatants were collected and subjected to HE4 assay (Human HE4 Quantikine ELISA Kit, R&D Systems). The amount of HE4 in supernatant was normalized to the protein concentration of matching cell lysate. The levels of HER2 were determined by Human Total ErbB2/Her2 DuoSet IC ELISA (R&D systems. Wester blot analysis was conducted using the protocol previously published (see Kim, K. K. et al. Tetrathiomolybdate inhibits mitochondrial complex IV and mediates degradation of hypoxia-inducible factor-1alpha in cancer cells. Sci. Rep. 5, 14296, 2015). Data Acquisition and Statistical Analysis. Gene expression profiling of septins, comparing microdissected normal ovarian stroma (N=8) against that of tumor stroma samples (N=31) from high grade serous ovarian cancer patients, was obtained from Mixed Ovarian Cancer (CAFs)-Wong-77-u133p2 data-set through ‘R2: Genomics Analysis and Visualization Platform (http://r2/am/n1). Mean values with SD were plotted and compared using Student t-test (two tail, unpaired heteroscedastic t-test, significant difference when p<0.01). The prognostic assessment of septin-2 amongst different cancers or septins in endometrial cancer was conducted using TCGA data acquired through Human Protein Atlas (http://www.proteinatlas.org) (see Uhlen, M. et al. Towards a knowledge-based Human Protein Atlas. Nat. Biotechnol. 28, 1248-1250, 2010). Survival curves between septin high and low population and their statistical significance were analyzed using GraphPad Prism software (Mantel-Cox test). […] Structural Modification of FCF. […]

HCH-1 cells = assay: MTS cell viability, HCH-1; type: cell-based; settings: HCH-1, 72 hours, compared with UR214-9
Procedure: (§1) Cell lines, Culture, and Reagents. Cells were maintained in either DMEM (SKOV-3, KLE, OVCAR-3, OVCAR8-C5 and IGROV-1) or RPMI-1640 (ECC-1 and HCH-1), supplemented with 10% fetal calf serum (or 20% for OVCAR-3), penicillin (100 units/mL), and streptomycin (100 μg/mL) at 37° C. with 5% CO2 in a humidified incubator. Antibodies were purchased from Abcam (septin-2; ab179436) and Cell Signaling Technology; ERK (9102), p-ERK (4370), -actin (3700), u-Tubulin (2144), EGFR (4267) and HER2 (4290). FCF was purchased from Abcam. All other chemicals were from Sigma Aldrich. Synthesis of Derivaties. […] The reaction was monitored using thin-layer chromatography plates with DCM-MeOH or pure ethyl acetate as eluent. Spots were monitored in a UV chamber. […] Quantitative Real-Time PCR. […] Quantitative real-time PCR was conducted using QuantStudio 12 K Flex Real-Time PCR System (ABI) and the Taqman Gene Expression Assay (ABI) consisting of the FAM-labeled probes as follows: SEPT2 (Hs01565417_ml); WFDC2 (Hs00899484_ml); TBP (Hs00427620_ml) or B2M (Hs00187842_ml), which was used as reference for normalization. […] Cell viability, proliferation, and cellular apoptosis were measured using the MTS (Promega), BrdU cell proliferation (Cell Signaling Technology), and Caspase-Glo 3/7 apoptosis detection (Promega) assays, following the respective manufacturer's recommendations with suitable modification. […]

ECC-1 cells [2] = assay: BrdU cell proliferation assay; type: cell-based; settings: ECC-1, 48 hours, BrdU, lower dose ranges
Procedure: (§2) Cell lines, Culture, and Reagents. Cells were maintained in either DMEM (SKOV-3, KLE, OVCAR-3, OVCAR8-C5 and IGROV-1) or RPMI-1640 (ECC-1 and HCH-1), supplemented with 10% fetal calf serum (or 20% for OVCAR-3), penicillin (100 units/mL), and streptomycin (100 μg/mL) at 37° C. with 5% CO2 in a humidified incubator. Antibodies were purchased from Abcam (septin-2; ab179436) and Cell Signaling Technology; ERK (9102), p-ERK (4370), -actin (3700), u-Tubulin (2144), EGFR (4267) and HER2 (4290). FCF was purchased from Abcam. All other chemicals were from Sigma Aldrich. Synthesis of Derivaties. […] The reaction was monitored using thin-layer chromatography plates with DCM-MeOH or pure ethyl acetate as eluent. Spots were monitored in a UV chamber. The reaction mixture, upon completion of the reaction, was poured into wet ice mixture and triturated, then the separated solid was filtered by vacuum. The product was washed with hexane, followed by diethyl ether, and was dried under vacuum. The compounds were characterized by spectrophotometric techniques. Quantitative Real-Time PCR. The indicated cell lines were transfected with siRNA targeting septin-2 or non-targeting control siRNA (Santa Cruz Biotechnology: sc-37007 or sc-40936) using Lipofectamine 3000 (Invitrogen). […] Quantitative real-time PCR was conducted using QuantStudio 12 K Flex Real-Time PCR System (ABI) and the Taqman Gene Expression Assay (ABI) consisting of the FAM-labeled probes as follows: SEPT2 (Hs01565417_ml); WFDC2 (Hs00899484_ml); TBP (Hs00427620_ml) or B2M (Hs00187842_ml), which was used as reference for normalization. […] Cell viability, proliferation, and cellular apoptosis were measured using the MTS (Promega), BrdU cell proliferation (Cell Signaling Technology), and Caspase-Glo 3/7 apoptosis detection (Promega) assays, following the respective manufacturer's recommendations with suitable modification. […] Survival curves between septin high and low population and their statistical significance were analyzed using GraphPad Prism software (Mantel-Cox test). […]

HER2 = assay: Western blot of HER2 expression in ECC-1 and HCH-1 cells; type: cell-based; settings: UR214-7 33 μM, UR214-9 33 μM, FCF 300 μM, 24 hours
Procedure: as §2

ECC-1 cells [3] = assay: MTS cell viability, ECC-1; type: cell-based; settings: ECC-1, 48 hours, MTS (FIG. 2B)
Procedure: as §2

EGFR = assay: Western blot of EGFR expression; type: cell-based; settings: UR214-7 33 μM, UR214-9 33 μM; 24 hours
Procedure: as §1

ECC-1 cells [4] = assay: Caspase-3/7 activity apoptosis assay; type: cell-based; settings: ECC-1, 33 μM, 48 hours
Procedure: as §1

HE4 = HE4 ELISA, secreted and intracellular levels; type: cell-based, human; settings: ECC-1, 5 hours
Procedure: Cell lines, Culture, and Reagents. Cells were maintained in either DMEM (SKOV-3, KLE, OVCAR-3, OVCAR8-C5 and IGROV-1) or RPMI-1640 (ECC-1 and HCH-1), supplemented with 10% fetal calf serum (or 20% for OVCAR-3), penicillin (100 units/mL), and streptomycin (100 μg/mL) at 37° C. with 5% CO2 in a humidified incubator. Antibodies were purchased from Abcam (septin-2; ab179436) and Cell Signaling Technology; ERK (9102), p-ERK (4370), -actin (3700), u-Tubulin (2144), EGFR (4267) and HER2 (4290). FCF was purchased from Abcam. All other chemicals were from Sigma Aldrich. Synthesis of Derivaties. […] The reaction was monitored using thin-layer chromatography plates with DCM-MeOH or pure ethyl acetate as eluent. Spots were monitored in a UV chamber. The reaction mixture, upon completion of the reaction, was poured into wet ice mixture and triturated, then the separated solid was filtered by vacuum. The product was washed with hexane, followed by diethyl ether, and was dried under vacuum. The compounds were characterized by spectrophotometric techniques. Quantitative Real-Time PCR. The indicated cell lines were transfected with siRNA targeting septin-2 or non-targeting control siRNA (Santa Cruz Biotechnology: sc-37007 or sc-40936) using Lipofectamine 3000 (Invitrogen). Tri reagent and Direct-zol kit (Zymo Research) were used to lyse and isolate total RNA. Reverse transcription was performed using iScript cDNA synthesis kit (BioRad), both following the manufacturer's recommendations. Quantitative real-time PCR was conducted using QuantStudio 12 K Flex Real-Time PCR System (ABI) and the Taqman Gene Expression Assay (ABI) consisting of the FAM-labeled probes as follows: SEPT2 (Hs01565417_ml); WFDC2 (Hs00899484_ml); TBP (Hs00427620_ml) or B2M (Hs00187842_ml), which was used as reference for normalization. Cell Viability, Proliferation and Apoptosis Assay. Cell viability, proliferation, and cellular apoptosis were measured using the MTS (Promega), BrdU cell proliferation (Cell Signaling Technology), and Caspase-Glo 3/7 apoptosis detection (Promega) assays, following the respective manufacturer's recommendations with suitable modification. Enzyme-Linked Immunosorbent Assay (ELISA) and Immunoblotting. Cells were maintained overnight in the culture media described above. […] Following the treatment, cell lysates and supernatants were collected and subjected to HE4 assay (Human HE4 Quantikine ELISA Kit, R&D Systems). The amount of HE4 in supernatant was normalized to the protein concentration of matching cell lysate. The levels of HER2 were determined by Human Total ErbB2/Her2 DuoSet IC ELISA (R&D systems. Wester blot analysis was conducted using the protocol previously published (see Kim, K. K. et al. Tetrathiomolybdate inhibits mitochondrial complex IV and mediates degradation of hypoxia-inducible factor-1alpha in cancer cells. Sci. Rep. 5, 14296, 2015). Data Acquisition and Statistical Analysis. Gene expression profiling of septins, comparing microdissected normal ovarian stroma (N=8) against that of tumor stroma samples (N=31) from high grade serous ovarian cancer patients, was obtained from Mixed Ovarian Cancer (CAFs)-Wong-77-u133p2 data-set through ‘R2: Genomics Analysis and Visualization Platform (http://r2/am/n1). […] Survival curves between septin high and low population and their statistical significance were analyzed using GraphPad Prism software (Mantel-Cox test). […]

[5] = system: JIMT-1 breast cancer cells; assay: RNA-Seq whole transcriptome analysis, JIMT-1; type: cell-based, human; settings: 10 nM Afatinib

O=C(Nc1ccc(-n2cccc2)cc1)Nc1ccnc(Cl)c1 [UR214-3]
cytotoxic / anti-proliferative activity (FIG. 2A) ([1]; MTS): not tolerated

O=C(Nc1cnc(Cl)nc1)Nc1cc(SC(F)(F)F)ccc1Cl [UR214-6]
cytotoxic / anti-proliferative activity (FIG. 2A) ([1]; MTS): lack of activity

O=C(Nc1ccnc(Cl)c1)Nc1cccc(SC(F)(F)F)c1F [UR214-7]
viability of tumor cells, dose-dependent (FIG. 2E) (HCH-1 cells): superior efficacy
proliferation (ECC-1 cells [2]): reduce proliferation
HER2 expression (HER2): inhibition of HER2 expression
concentration inhibiting viability (ECC-1 cells [3]): ≥ 11 µM
EGFR expression (EGFR): did not have an effect
apoptosis (caspase-3/7 activity) (ECC-1 cells [4]): caused apoptosis
proliferation in multiple endometrial and ovarian cancer cells [1]: blocked proliferation
HE4 secretion (HE4): reduced HE4 secretion

O=C(Nc1ccc(-c2ncccn2)cc1)Nc1ccnc(Cl)c1 [UR214-4]
cytotoxic / anti-proliferative activity (FIG. 2A) ([1]; MTS): not tolerated

O=C(Nc1cccc(OCc2ccccc2)c1)Nc1ccnc(Cl)c1 [UR214-2]
cytotoxic / anti-proliferative activity (FIG. 2A) ([1]; MTS): not tolerated

O=C(Nc1ccnc(Br)c1)Nc1cccc(C(F)(F)F)c1F [UR214-11]
viability of tumor cells, dose-dependent (FIG. 2E) ([1]; 72 hours, MTS): did not lose activity

CN(C)C/C=C/C(=O)Nc1cc2c(Nc3ccc(F)c(Cl)c3)ncnc2cc1O[C@H]1CCOC1 [Afatinib]
dysregulated genes, down ([5]; 1 μM UR214-9): 523
dysregulated genes, up ([5]; 1 μM UR214-9): 713
dysregulated (differentially expressed) genes versus control ([5]; 1 μM UR214-9, adjusted p-value <0.05): 1236 genes

O=C(Nc1ccnc(Cl)c1)Nc1cc(SC(F)(F)F)ccc1Cl [UR214-1]
proliferation in multiple endometrial and ovarian cancer cells [1]: blocked proliferation
cytotoxic / anti-proliferative activity (FIG. 2A) ([1]; MTS): very potent cytotoxic activity
HE4 secretion (HE4): reduced HE4 secretion
